Laboratory results reported in patent US20220324865A1 (Bayer Aktiengesellschaft, priority 2018, published 2022).

Biological target: T1, human EP3 receptor (Homo sapiens, UniProt P43115)
T1 construct: expressed in transfected cells; host or cells: CHO K1 (Chinese Hamster Ovary), stably co-transfected with Galpha16 and mitochondrial clytin
T1 sequence (P43115 1-390): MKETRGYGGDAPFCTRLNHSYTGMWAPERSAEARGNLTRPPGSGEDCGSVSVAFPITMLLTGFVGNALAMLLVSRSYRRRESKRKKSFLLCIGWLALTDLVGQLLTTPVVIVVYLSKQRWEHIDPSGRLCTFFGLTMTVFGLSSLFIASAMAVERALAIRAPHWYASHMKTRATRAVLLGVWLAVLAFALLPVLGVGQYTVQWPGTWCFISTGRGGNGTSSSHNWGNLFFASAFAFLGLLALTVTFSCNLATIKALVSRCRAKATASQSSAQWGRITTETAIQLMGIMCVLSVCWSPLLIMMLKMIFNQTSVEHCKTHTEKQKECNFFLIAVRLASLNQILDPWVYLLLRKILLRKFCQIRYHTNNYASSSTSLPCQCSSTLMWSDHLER
Test: Cellular in vitro assay for determining EP3 receptor activity (human EP3 cell line, sulprostone-stimulated calcium luminescence)
Assay type: cell-based
Settings: CHO cells expressing human EP3 and mitochondrial Clytin; antagonist mode, sulprostone at EC50; read-out: EP3 CHO mtCLY ANTAG IC50
Experimental: B-1. Cellular In Vitro Assay for Determining EP3 Receptor Activity
The identification of antagonists of the EP3 receptor from humans and rats as well as the quantification of the activity of the compounds of the invention was carried out using recombinant cell lines. These cell lines originally derive from a hamsters ovary epithelial cell (Chinese Hamster Ovary, CHO K1, ATCC: American Type Culture Collection, Manassas, Va. 20108, USA). The test cell lines constitutively express the human or rat EP3 receptors. The naturally Gαi-coupled human and rat EP3 receptors were stably co-transfected with Gα16 into cells that are also stably transfected with a mitochondrial form of the calcium-sensitive photoproteins Clytin (human EP3) or Photina (rat EP3), which, after reconstitution with the cofactor coelenterazine, emit light when there are increases in free calcium concentrations (Nature 1992, 358, 325-327; Gene 1995, 153 (2), 273-274). The resulting EP3 receptor cells react to stimulation of the recombinantly expressed EP3 receptors by the agonist sulprostone with intracellular release of calcium ions, which can be quantified by the resulting photoprotein luminescence. Antagonists inhibit the receptor signaling, leading to reduced calcium release and luminescence. The bioluminescence of the cell lines is detected using a suitable luminometer (Trends Pharmacol. Sci. 1996, 17, 235-237).
Human and Rat EP3 Cell Lines:
On the day before the assay, the cells are plated out in culture medium (OptiMEM, 1% FCS, 2 mM glutamine, 10 mM HEPES, 5 μg/ml coelenterazine) in 384-well microtiter plates and kept in a cell incubator (96% humidity, 5% v/v CO2, 37° C.). On the day of the assay, test compounds in various concentrations are placed for 10 minutes in the wells of the microtiter plate before the agonist sulprostone at EC50 concentration is added. The resulting light signal is measured immediately in a luminometer. All concentrations are measured in quadruples.

Row | IC50 [nM] | Structure (SMILES)
1 | 5.97 | CN(C)C[C@@H](NC(=O)c1cc2c(=O)[nH]c(-c3ccc4c(c3F)OCCO4)cn2n1)c1ccccc1 [Example 1-109, N-[(1S)-2-(Dimethylamino)-1-phenylethyl]-6-(5-fluoro-2,3-dihydro-1,4-benzodioxin-6-yl)-4-oxo-4,5-dihydropyrazolo[1,5-a]pyrazine-2-carboxamide]
2 | 6.45 | Cc1ccc(-c2cn3nc(C(=O)NC4(c5ccc(F)cc5)CCN(C)C4)cc3c(=O)[nH]2)cc1C (single isomer, unassigned) [6-364]
3 | 0.76 | Cc1ccc(-c2cn3nc(C(=O)NCC(N)C(F)(F)F)c(C4CC4)c3c(=O)[nH]2)cc1C (single isomer, unassigned) [6-433]
4 | 0.41 | Cc1ccc(-c2cn3nc(C(=O)N[C@H](C)C4CC4)c(C4CC4)c3c(=O)[nH]2)cc1Cl [6-283]
5 | 1.35 | N#Cc1c(C(=O)NC2(c3ccccc3)CC2)nn2cc(-c3ccc4ccccc4c3)[nH]c(=O)c12 [Example 3-49, 3-Cyano-6-(naphthalen-2-yl)-4-oxo-N-(1-phenylcyclopropyl)-4,5-dihydropyrazolo[1,5-a]pyrazine-2-carboxamide]
6 | 4.13 | Cc1ccc(-c2[nH]c(=O)c3c(C(F)(F)F)c(C(=O)N[C@H](CCO)c4ccc(F)cc4)nn3c2C)cc1C [Example 1-122, 6-(3,4-Dimethylphenyl)-N-[(1R)-1-(4-fluorophenyl)-3-hydroxpropyl]-7-methyl-4-oxo-3-(trifluoromethyl)-4,5-dihydropyrazolo[1,5-a]pyrazine-2-carboxamide]
7 | 5.75 | CC(C)(O)[C@@H](NC(=O)c1cc2c(=O)[nH]c(-c3ccc4c(c3)CCC4)cn2n1)c1ccc(F)cc1 [Example 1-134, 6-(2,3-Dihydro-1H-inden-5-yl)-N-[(1S)-1-(4-fluorophenyl)-2-hydroxy-2-methylpropyl]-4-oxo-4,5-dihydropyrazolo[1,5-a]pyrazine-2-carboxamide]
8 | 3.2 | Cc1c(C(=O)NC(C)c2ccc(S(C)(=O)=O)cc2)nn2c(C)c(-c3ccc4ccccc4c3)[nH]c(=O)c12 (centres unmarked) [Example 3-23, 3,7-Dimethyl-N-[1-(4-methylsulfonylphenyl)ethyl]-6-(2-naphthyl)-4-oxo-5H-pyrazolo[1,5-a]pyrazine-2-carboxamide]
9 | 0.95 | Cc1ccc(-c2cn3nc(C(=O)NCC(O)C(F)(F)F)c(C(F)(F)F)c3c(=O)[nH]2)cc1C (racemic) [6-115]
10 | 2.55 | Cc1ccc(-c2[nH]c(=O)c3c(C(F)(F)F)c(C(=O)NCCn4ccc(C5CC5)n4)nn3c2C)cc1C [Example 1-130, N-[2-(3-Cyclopropyl-1H-pyrazol-1-yl)ethyl]-6-(3,4-dimethylphenyl)-7-methyl-4-oxo-3-(trifluoromethyl)-4,5-dihydropyrazolo[1,5-a]pyrazine-2-carboxamide]
11 | 3.5 | Cc1ccc(-c2cn3nc(C(=O)N[C@@H](c4ccc(F)cc4)C(C)(C)O)c(CC(F)(F)F)c3c(=O)[nH]2)cc1F [6-633]
12 | 2 | Cc1cccc2ncc(-c3cn4nc(C(=O)NCc5cnn(C)c5)c(C(C)C)c4c(=O)[nH]3)cc12 [Example 4-37, N-[(1-Methyl-1H-pyrazol-4-yl)methyl]-6-(5-methylquinolin-3-yl)-4-oxo-3-(propan-2-yl)-4,5-dihydropyrazolo[1,5-a]pyrazine-2-carboxamide]
13 | 2.7 | CCC1(NC(=O)c2cc3c(=O)[nH]c(-c4ccc5ccccc5c4)cn3n2)CN(C(=O)OC(C)(C)C)C1 [Example 1-5, tert.-Butyl 3-ethyl-3-({[6-(naphthalen-2-yl)-4-oxo-4,5-dihydropyrazolo[1,5-a]pyrazin-2-yl]carbonyl}-amino)azetidine-1-carboxylate]
14 | 0.79 | O=C(N[C@H](CCO)c1ccc(F)cc1)c1nn2cc(-c3ccc(Cl)cc3)[nH]c(=O)c2c1C1CC1 [6-674]
15 | 1.9 | Cc1cccc2ncc(-c3cn4nc(C(=O)NCC(C)(C)C)c(C(C)C)c4c(=O)[nH]3)cc12 [Example 4-33, N-(2,2-Dimethylpropyl)-6-(5-methylquinolin-3-yl)-4-oxo-3-(propan-2-yl)-4,5-dihydropyrazolo[1,5-a]pyrazine-2-carboxamide]
16 | 2.63 | CC(NC(=O)c1cc2c(=O)[nH]c(-c3ccc4cccnc4c3)cn2n1)c1ccc(F)cc1 (centres unmarked) [6-27]

Row | IC50 [nM] | Structure (SMILES)
17 | 1.1 | Cc1ccc(-c2cn3nc(C(=O)N[C@@H](c4ccc(F)cc4)C(F)(F)CO)c(C4CC4)c3c(=O)[nH]2)cc1Cl [6-256]
18 | 0.68 | O=C(NC(c1ccc(F)cc1)C1(O)CC1)c1nn2cc(-c3ccc(Cl)c(F)c3)[nH]c(=O)c2c1C1CC1 (single isomer, unassigned) [6-98]
19 | 4.85 | Cc1ccc(-c2cn3nc(C(=O)NC(CNC(=O)OC(C)(C)C)c4ccc(F)cc4)cc3c(=O)[nH]2)cc1C (centres unmarked) [6-42]
20 | 4.2 | [N-]=[N+]=NC[C@H](NC(=O)c1cc2c(=O)[nH]c(-c3ccc4ccccc4c3)cn2n1)c1ccccc1 [6-59]
21 | 1.9 | Cc1cccc2ncc(-c3cn4nc(C(=O)NC(C)c5ccc6c(c5)OCCO6)c(C(C)C)c4c(=O)[nH]3)cc12 (centres unmarked) [Example 4-57, N-[1-(2,3-Dihydro-1,4-benzodioxin-6-yl)ethyl]-3-isopropyl-6-(5-methyl-3-quinolyl)-4-oxo-5H-pyrazolo[1,5-a]pyrazine-2-carboxamide]
22 | 4.5 | CC(=O)N1CC(NC(=O)c2cc3c(=O)[nH]c(-c4ccc5ccccc5c4)cn3n2)(c2ccc(F)cc2)C1 [Example 1-146, N-[1-Acetyl-3-(4-fluorophenyl)azetidin-3-yl]-6-(2-naphthyl)-4-oxo-5H-pyrazolo[1,5-a]pyrazine-2-carboxamide]
23 | 0.92 | Cc1ccc(-c2cn3nc(C(=O)N[C@@H](c4ccc(F)cc4)C(F)(F)CO)c(C(F)(F)F)c3c(=O)[nH]2)cc1Cl [6-157]
24 | 1.55 | COc1ccc(C(NC(=O)c2nn3cc(-c4cnc5cccc(C)c5c4)[nH]c(=O)c3c2C(C)C)C2CC2)cc1 (centres unmarked) [Example 4-78, N-[Cyclopropyl(4-methoxyphenyl)methyl]-3-isopropyl-6-(5-methyl-3-quinolyl)-4-oxo-5H-pyrazolo[1,5-a]pyrazine-2-carboxamide]
25 | 1.75 | CCn1nccc1C(C)NC(=O)c1nn2c(C)c(-c3ccc4ccccc4c3)[nH]c(=O)c2c1C (centres unmarked) [Example 3-12, N-[1-(1-Ethyl-1H-pyrazol-5-yl)ethyl]-3,7-dimethyl-6-(2-naphthyl)-4-oxo-4,5-dihydropyrazolo[1,5-a]pyrazine-2-carboxamide]
26 | 3.75 | COC(=O)C(NC(=O)c1cc2c(=O)[nH]c(-c3ccc4ccccc4c3)cn2n1)c1ccc(F)cc1 (centres unmarked) [6-17]
27 | 6.3 | CC(C)(O)[C@@H](NC(=O)c1nn2cc(-c3ccc(Cl)c(F)c3)[nH]c(=O)c2c1C(F)F)c1ccc(F)cc1 [6-632]
28 | 4.18 | Cc1cc(-c2cn3nc(C(=O)N[C@H](CCO)c4ccc(F)cc4)cc3c(=O)[nH]2)ccc1C(F)(F)F [Example 1-121, N-[(1R)-1-(4-Fluorophenyl)-3-hydroxpropyl]-6-[3-methyl-4-(trifluoromethyl)phenyl]-4-oxo-4,5-dihydropyrazolo[1,5-a]pyrazine-2-carboxamide]
29 | 1.15 | Cc1ccc(-c2cn3nc(C(=O)N[C@@H](c4ccc(F)cc4)C(C)(C)O)c(C(F)(F)F)c3c(=O)[nH]2)cc1Cl [Example 1-151, 6-(3-Chloro-4-methylphenyl)-N-[(1S)-1-(4-fluorophenyl)-2-hydroxy-2-methylpropyl]-4-oxo-3-(trifluoromethyl)-4,5-dihydropyrazolo[1,5-a]pyrazine-2-carboxamide]
30 | 5.3 | CC(NC(=O)c1cc2c(=O)[nH]c(-c3ccc4ccccc4c3)cn2n1)c1ccc2c(c1)OCCO2 (centres unmarked) [Example 2-35, N-[1-(2,3-Dihydro-1,4-benzodioxin-6-yl)ethyl]-6-(2-naphthyl)-4-oxo-4,5-dihydropyrazolo[1,5-a]pyrazine-2-carboxamide]
31 | 9.97 | CC(C)(O)[C@@H](NC(=O)c1nn2cc(-c3ccc(Cl)c(F)c3)[nH]c(=O)c2c1C(F)(F)F)c1ccc(F)cc1 [6-649]
32 | 0.7 | O=C(NC(c1ccc(F)cc1)C1(O)CC1)c1nn2cc(-c3ccc(Cl)c(Cl)c3)[nH]c(=O)c2c1C1CC1 (racemic) [6-422]
